Data published in the supplement of paper PMC10307832.

Assays:
Assay in all cases: relative viability (nuclei count vs DMSO), 5 days (fraction); higher = more cells survive
A549 = system: A549
How it was run: (§1)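 Values are medians from duplicate plates. Each reflects relative viability, defined as the nuclei count of treated wells over that of vehicle wells. Lung cancer cell lines in 1536-well plates were pin-tool dosed one day after seeding with one drug alone or with a fixed anchor-drug dose plus five library-drug doses (not always all listed) in √10 steps, then fixed, stained and imaged at 4× after 5 days.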

HCC-44 = system: HCC-44
How it was run: as §1

HCC-78 = system: HCC-78
How it was run: as §1

NCI-H1563 = system: NCI-H1563
How it was run: as §1

NCI-H1623 = system: NCI-H1623
How it was run: as §1

NCI-H2087 = system: NCI-H2087
How it was run: as §1

NCI-H322M = system: NCI-H322M
How it was run: as §1

Calu-6 = system: Calu-6
How it was run: as §1

EBC-1 = system: EBC-1
How it was run: as §1

IA-LM = system: IA-LM
How it was run: as §1

NCI-H1299 = system: NCI-H1299
How it was run: as §1

NCI-H1703 = system: NCI-H1703
How it was run: as §1

**Q.** For `Cc1cn(-c2cc(NC(=O)c3ccc(C)c(Nc4nccc(-c5cccnc5)n4)c3)cc(C(F)(F)F)c2)cn1` [Nilotinib] + N=C(N)NC(=N)NCCc1ccccc1 [Phenformin] (partner 250 µM), which relative viability (A549; first compound 0.001 µM) is on record?
**A.** The relative viability was 0.147.

**Q.** And the relative viability (A549; first compound 0.003162 µM)?
**A.** The relative viability was 0.27.

**Q.** What about the relative viability (A549; first compound 0.01 µM) of the same compound?
**A.** Its relative viability is 0.274.

**Q.** What about the relative viability (A549; first compound 0.03162 µM) of the same compound?
**A.** The relative viability was 0.172.

**Q.** And the relative viability (A549; first compound 0.1 µM)?
**A.** The relative viability was 0.14.

**Q.** And the relative viability (HCC-44; first compound 0.001 µM)?
**A.** Its relative viability is 0.154.

**Q.** And the relative viability (HCC-44; first compound 0.003162 µM)?
**A.** The relative viability was 0.145.

**Q.** And the relative viability (HCC-44; first compound 0.01 µM)?
**A.** Its relative viability is 0.186.

**Q.** And the relative viability (HCC-44; first compound 0.03162 µM)?
**A.** The relative viability was 0.179.

**Q.** And the relative viability (HCC-44; first compound 0.1 µM)?
**A.** The relative viability was 0.166.

**Q.** And the relative viability (HCC-78; first compound 0.001 µM)?
**A.** The relative viability was 0.786.

**Q.** What about the relative viability (HCC-78; first compound 0.003162 µM) of the same compound?
**A.** The relative viability was 0.643.

**Q.** What about the relative viability (HCC-78; first compound 0.01 µM) of the same compound?
**A.** The relative viability was 0.706.

**Q.** And the relative viability (HCC-78; first compound 0.03162 µM)?
**A.** Its relative viability is 0.637.

**Q.** What about the relative viability (HCC-78; first compound 0.1 µM) of the same compound?
**A.** The relative viability was 0.636.

**Q.** What about the relative viability (NCI-H1563; first compound 0.001 µM) of the same compound?
**A.** Its relative viability is 0.635.

**Q.** What about the relative viability (NCI-H1563; first compound 0.003162 µM) of the same compound?
**A.** Its relative viability is 0.689.

**Q.** What about the relative viability (NCI-H1563; first compound 0.01 µM) of the same compound?
**A.** The relative viability was 0.609.

**Q.** And the relative viability (NCI-H1563; first compound 0.03162 µM)?
**A.** Its relative viability is 0.635.

**Q.** And the relative viability (NCI-H1563; first compound 0.1 µM)?
**A.** The relative viability was 0.61.

**Q.** What about the relative viability (NCI-H1623; first compound 0.001 µM) of the same compound?
**A.** Its relative viability is 0.578.

**Q.** What about the relative viability (NCI-H1623; first compound 0.003162 µM) of the same compound?
**A.** Its relative viability is 0.585.

**Q.** And the relative viability (NCI-H1623; first compound 0.01 µM)?
**A.** The relative viability was 0.605.

**Q.** And the relative viability (NCI-H1623; first compound 0.03162 µM)?
**A.** The relative viability was 0.566.

**Q.** What about the relative viability (NCI-H1623; first compound 0.1 µM) of the same compound?
**A.** The relative viability was 0.601.

**Q.** What about the relative viability (NCI-H2087; first compound 0.001 µM) of the same compound?
**A.** Its relative viability is 0.403.

**Q.** What about the relative viability (NCI-H2087; first compound 0.003162 µM) of the same compound?
**A.** The relative viability was 0.518.

**Q.** And the relative viability (NCI-H2087; first compound 0.01 µM)?
**A.** Its relative viability is 0.519.

**Q.** What about the relative viability (NCI-H2087; first compound 0.03162 µM) of the same compound?
**A.** The relative viability was 0.301.

**Q.** And the relative viability (NCI-H2087; first compound 0.1 µM)?
**A.** Its relative viability is 0.215.

**Q.** What about the relative viability (NCI-H322M; first compound 0.001 µM) of the same compound?
**A.** Its relative viability is 0.781.

**Q.** What about the relative viability (NCI-H322M; first compound 0.003162 µM) of the same compound?
**A.** The relative viability was 0.702.

**Q.** And the relative viability (NCI-H322M; first compound 0.01 µM)?
**A.** Its relative viability is 0.87.

**Q.** What about the relative viability (NCI-H322M; first compound 0.03162 µM) of the same compound?
**A.** Its relative viability is 0.741.

**Q.** What about the relative viability (NCI-H322M; first compound 0.1 µM) of the same compound?
**A.** The relative viability was 0.833.

**Q.** Which relative viability (A549; first compound 0.02 µM) does the source give for `CN1CCN(CCOc2cc(OC3CCOCC3)c3c(Nc4c(Cl)ccc5c4OCO5)ncnc3c2)CC1` [Saracatinib] + COc1cc2c(Oc3ccc(NC(=O)C4(C(=O)Nc5ccc(F)cc5)CC4)cc3F)ccnc2cc1OCCCN1CCOCC1 [Foretinib] (partner 0.25 µM) here?
**A.** Its relative viability is 0.864.

**Q.** What about the relative viability (A549; first compound 0.6325 µM) of the same compound?
**A.** Its relative viability is 0.8.

**Q.** What about the relative viability (A549; first compound 2 µM) of the same compound?
**A.** The relative viability was 0.841.

**Q.** And the relative viability (Calu-6; first compound 0.02 µM)?
**A.** Its relative viability is 0.813.

**Q.** What about the relative viability (Calu-6; first compound 0.2 µM) of the same compound?
**A.** Its relative viability is 0.579.

**Q.** What about the relative viability (Calu-6; first compound 0.6325 µM) of the same compound?
**A.** The relative viability was 0.684.

**Q.** And the relative viability (Calu-6; first compound 2 µM)?
**A.** The relative viability was 0.581.

**Q.** What about the relative viability (EBC-1; first compound 0.02 µM) of the same compound?
**A.** The relative viability was 0.0938.

**Q.** And the relative viability (EBC-1; first compound 0.2 µM)?
**A.** The relative viability was 0.111.

**Q.** What about the relative viability (EBC-1; first compound 0.6325 µM) of the same compound?
**A.** Its relative viability is 0.108.

**Q.** And the relative viability (EBC-1; first compound 2 µM)?
**A.** Its relative viability is 0.106.

**Q.** What about the relative viability (HCC-78; first compound 0.02 µM) of the same compound?
**A.** The relative viability was 0.534.

**Q.** What about the relative viability (HCC-78; first compound 0.6325 µM) of the same compound?
**A.** The relative viability was 0.678.

**Q.** And the relative viability (HCC-78; first compound 2 µM)?
**A.** The relative viability was 0.413.

**Q.** What about the relative viability (IA-LM; first compound 0.02 µM) of the same compound?
**A.** Its relative viability is 1.13.

**Q.** And the relative viability (IA-LM; first compound 0.2 µM)?
**A.** The relative viability was 1.28.

**Q.** And the relative viability (IA-LM; first compound 0.6325 µM)?
**A.** Its relative viability is 1.01.

**Q.** What about the relative viability (IA-LM; first compound 2 µM) of the same compound?
**A.** The relative viability was 0.912.

**Q.** And the relative viability (NCI-H1299; first compound 0.02 µM)?
**A.** Its relative viability is 1.11.

**Q.** And the relative viability (NCI-H1299; first compound 0.2 µM)?
**A.** The relative viability was 1.08.

**Q.** What about the relative viability (NCI-H1299; first compound 0.6325 µM) of the same compound?
**A.** Its relative viability is 1.21.

**Q.** And the relative viability (NCI-H1299; first compound 2 µM)?
**A.** Its relative viability is 1.14.

**Q.** And the relative viability (NCI-H1563; first compound 0.02 µM)?
**A.** Its relative viability is 0.924.

**Q.** And the relative viability (NCI-H1563; first compound 0.2 µM)?
**A.** Its relative viability is 0.782.

**Q.** What about the relative viability (NCI-H1563; first compound 0.6325 µM) of the same compound?
**A.** The relative viability was 0.76.

**Q.** What about the relative viability (NCI-H1563; first compound 2 µM) of the same compound?
**A.** The relative viability was 0.649.

**Q.** What about the relative viability (NCI-H1623; first compound 0.02 µM) of the same compound?
**A.** The relative viability was 0.876.

**Q.** And the relative viability (NCI-H1623; first compound 0.2 µM)?
**A.** The relative viability was 0.723.

**Q.** And the relative viability (NCI-H1623; first compound 0.6325 µM)?
**A.** Its relative viability is 0.908.

**Q.** And the relative viability (NCI-H1623; first compound 2 µM)?
**A.** The relative viability was 0.681.

**Q.** What about the relative viability (NCI-H1703; first compound 0.02 µM) of the same compound?
**A.** The relative viability was 0.38.

**Q.** What about the relative viability (NCI-H1703; first compound 0.2 µM) of the same compound?
**A.** Its relative viability is 0.319.

**Q.** And the relative viability (NCI-H1703; first compound 0.6325 µM)?
**A.** The relative viability was 0.251.

**Q.** What about the relative viability (NCI-H1703; first compound 2 µM) of the same compound?
**A.** The relative viability was 0.259.

**Q.** And the relative viability (NCI-H2087; first compound 0.02 µM)?
**A.** The relative viability was 1.07.

**Q.** And the relative viability (NCI-H2087; first compound 0.2 µM)?
**A.** Its relative viability is 0.874.

**Q.** What about the relative viability (NCI-H2087; first compound 0.6325 µM) of the same compound?
**A.** The relative viability was 1.1.

**Q.** What about the relative viability (NCI-H2087; first compound 2 µM) of the same compound?
**A.** Its relative viability is 1.07.

**Q.** And the relative viability (NCI-H322M; first compound 0.02 µM)?
**A.** The relative viability was 1.01.

**Q.** And the relative viability (NCI-H322M; first compound 0.2 µM)?
**A.** Its relative viability is 0.921.

**Q.** And the relative viability (NCI-H322M; first compound 0.6325 µM)?
**A.** Its relative viability is 0.826.

**Q.** What about the relative viability (NCI-H322M; first compound 2 µM) of the same compound?
**A.** Its relative viability is 0.403.
